In ChEMBL document CHEMBL2417426, “Synthesis of quaternary α-amino acid-based arginase inhibitors via the Ugi reaction” (Bioorg Med Chem Lett, 2013):

Experiments:
[1] = target: T1, Arginase-2, mitochondrial (Homo sapiens, UniProt P78540); experiment: Inhibition of human arginase-2 assessed as L-arginine conversion to L-ornithine measured as urea level after 1 hr by colorimetric assay
T1 sequence (P78540 whole entry): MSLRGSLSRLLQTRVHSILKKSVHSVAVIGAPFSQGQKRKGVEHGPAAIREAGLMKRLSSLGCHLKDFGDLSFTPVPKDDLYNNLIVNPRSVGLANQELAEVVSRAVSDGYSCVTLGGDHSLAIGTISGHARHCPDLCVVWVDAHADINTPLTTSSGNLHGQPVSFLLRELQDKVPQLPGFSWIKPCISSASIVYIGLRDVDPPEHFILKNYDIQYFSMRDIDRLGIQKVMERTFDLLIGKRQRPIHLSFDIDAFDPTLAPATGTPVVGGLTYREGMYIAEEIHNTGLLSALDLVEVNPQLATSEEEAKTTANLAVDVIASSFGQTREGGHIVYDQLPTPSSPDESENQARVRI

Arginase-1 = target: T2, Arginase-1 (Homo sapiens, UniProt P05089); experiment: Inhibition of human arginase-1 assessed as L-arginine conversion to L-ornithine measured as urea level after 1 hr by colorimetric assay
T2 sequence (P05089 whole entry): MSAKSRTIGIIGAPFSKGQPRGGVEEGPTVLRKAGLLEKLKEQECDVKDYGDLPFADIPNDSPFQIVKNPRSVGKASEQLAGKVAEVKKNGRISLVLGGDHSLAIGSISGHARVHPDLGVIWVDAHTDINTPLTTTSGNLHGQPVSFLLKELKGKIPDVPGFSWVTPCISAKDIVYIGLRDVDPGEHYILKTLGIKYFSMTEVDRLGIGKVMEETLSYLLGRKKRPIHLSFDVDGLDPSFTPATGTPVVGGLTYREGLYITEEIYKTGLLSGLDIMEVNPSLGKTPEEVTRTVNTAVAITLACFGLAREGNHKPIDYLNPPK

[2] = Bioavailability in ip dosed rat; assay type: ADME, organism-based; details: in vivo
[3] = Octanol-phosphate buffer partition coefficient, log D of the compound by shake-flask method; assay type: physicochemical
[4] = Mean residence time in rat; assay type: ADME, organism-based; details: in vivo
Plasma = experiment: Initial plasma concentration in rat; assay type: ADME
[5] = Clearance in iv dosed rat; assay type: ADME, organism-based; details: in vivo
[6] = Oral bioavailability in rat; assay type: ADME, organism-based; details: in vivo
[7] = Half life in iv dosed rat; assay type: ADME, organism-based; details: in vivo
Rattus norvegicus [8] = experiment: AUC (0 to t) in iv dosed rat; assay type: ADME, organism-based, Plasma; details: in vivo
[9] = Volume of distribution at steady state in iv dosed rat; assay type: ADME, organism-based; details: in vivo, read-out: Vdss
Rattus norvegicus [10] = experiment: AUC (0 to infinity) in iv dosed rat; assay type: ADME, organism-based, Plasma; set-up: route intravenous, time infinity; details: in vivo

Row | Structure (SMILES) | IC50 [1] [nM] | IC50 (Arginase-1) [nM] | bioavailability [2] [%] | logD [3] | MRT [4] [h] | C0 (Plasma) [mg/L] | clearance [5] [mL/min/kg] | bioavailability [6] [%] | half-life [7] [min] | AUCt (Rattus norvegicus [8]) [kg·h/L] | Vd [9] [L/kg] | AUC (Rattus norvegicus [10]) [kg·h/L]
1 | N[C@@H](CCCCB(O)O)C(=O)O | 2150 | 1470 |  |  |  |  |  |  |  |  |  | 
2 | NC(CCCCB(O)O)(C(=O)O)C1CCN(C(=O)Nc2ccc(Cl)cc2)CC1 (racemic) | 1100 | 720 | < 5 | 0.5 |  |  |  |  |  |  |  | 
3 | NC(CCCCB(O)O)(C(=O)O)C1CCN(C(=S)NCc2ccc(Cl)cc2)CC1 (racemic) | 1120 | 330 | < 5 |  |  |  |  |  |  |  |  | 
4 | NC(CCCCB(O)O)(C(=O)O)C1CC2CCC(C1)N2 (racemic) | 85 | 80 | < 5 |  |  |  |  |  |  |  |  | 
5 | NC(CCCCB(O)O)(C(=O)O)C1CC2CCC(C1)N2Cc1ccccc1 (racemic) | 47 | 24 | < 5 |  |  |  |  |  |  |  |  | 
6 | NC(CCCCB(O)O)(C(=O)O)C1CC2CCC(C1)N2Cc1ccc(Cl)cc1 (racemic) | 30 | 17 | < 5 |  |  |  |  |  |  |  |  | 
7 | NC(CCCCB(O)O)(C(=O)O)C1CC2CCC(C1)N2Cc1ccc(Cl)c(Cl)c1 (racemic) | 23 | 21 | > 50 | 2.4 | 0.912 | 4.77 | 16.8 | 0.25 | 187 | 0.951 | 0.918 | 0.994
8 | NC(CCCCB(O)O)(C(=O)O)C1CC2CCC(C1)N2Cc1ccc(F)c(F)c1 (racemic) | 33 | 22 | < 5 |  |  |  |  |  |  |  |  | 
9 | NC(CCCCB(O)O)(C(=O)O)C1CCNCC1 (racemic) | 640 | 380 | < 5 | -2.8 |  |  |  |  |  |  |  | 
10 | CC(C)CCN1CCC(C(N)(CCCCB(O)O)C(=O)O)CC1 (racemic) | 230 | 180 | < 5 | -1.1 |  |  |  |  |  |  |  | 
11 | NC(CCCCB(O)O)(C(=O)O)C1CCN(Cc2ccccc2)CC1 (racemic) | 230 | 200 | < 5 | -0.4 |  |  |  |  |  |  |  | 
12 | NC(CCCCB(O)O)(C(=O)O)C1CCN(Cc2ccc(Cl)cc2)CC1 (racemic) | 240 | 190 | < 5 | 0.3 |  |  |  |  |  |  |  | 
13 | NC(CCCCB(O)O)(C(=O)O)C1CCN(Cc2ccc(Cl)c(Cl)c2)CC1 (racemic) | 290 | 200 | > 50 | 1.5 | 2.14 | 4.72 | 7.87 | 4.8 | 470 | 2.05 | 1.51 | 2.12
14 | NC(CCCCB(O)O)(C(=O)O)C1CCN(CCc2ccc(Cl)cc2Cl)CC1 (racemic) | 330 | 210 | < 5 |  |  |  |  |  |  |  |  | 
15 | NC(CCCCB(O)O)(C(=O)O)C1CCN(CCCc2ccc(Cl)cc2Cl)CC1 (racemic) | 50 | 100 | < 5 | 1.2 |  |  |  |  |  |  |  | 
16 | NC(CCCCB(O)O)(C(=O)O)C1CCN(CCCc2ccc(C(F)(F)F)cc2)CC1 (racemic) | 70 | 120 | < 5 |  |  |  |  |  |  |  |  | 
17 | Cc1ccc(S(=O)(=O)N2CCC(C(N)(CCCCB(O)O)C(=O)O)CC2)cc1 (racemic) | 4650 | 6650 | < 5 |  |  |  |  |  |  |  |  | 
